Measurements from the NIST ThermoML archive (doi:10.1016/j.jct.2008.05.014).
± gives the expanded uncertainty stated by the source.

Experiments:
[1] = Liquid; for speed of sound: Pulse-echo method
[2] = refractive index (Na D-line) (dimensionless); settings: 298.15 K; 101.33 kPa; Liquid; Standard Abbe refractometry
[3] = xn = mol fraction of the nth substance listed; settings: Liquid, x1 = 1; for speed of sound: Pulse-echo method

CCCCCCCCCCCC [dodecane]
[1]
Settings	mass density [kg/m3]	speed of sound [m/s]
292.87 K, 15200 kPa	–	1384.9 ± 2.4
292.87 K, 30390 kPa	–	1457.9 ± 2.4
292.87 K, 45590 kPa	–	1524.1 ± 2.4
292.87 K, 60790 kPa	–	1584.5 ± 2.5
292.87 K, 75990 kPa	–	1640.7 ± 2.5
292.87 K, 91180 kPa	–	1692.8 ± 2.5
292.87 K, 101320 kPa	–	1725.8 ± 2.6
292.89 K, 101 kPa	–	1299.5 ± 1.6
293.15 K, 101 kPa	748.921 ± 0.63	–
298.15 K, 101 kPa	745.269 ± 0.63	–
298.16 K, 101 kPa	–	1278.9 ± 1.6
298.16 K, 15200 kPa	–	1365.9 ± 2.4
298.16 K, 30390 kPa	–	1440 ± 2.4
298.16 K, 45580 kPa	–	1507 ± 2.4
298.16 K, 60790 kPa	–	1568 ± 2.5
298.16 K, 75990 kPa	–	1625.2 ± 2.5
298.16 K, 91180 kPa	–	1677.7 ± 2.5
298.16 K, 101320 kPa	–	1711.1 ± 2.6
303.14 K, 30390 kPa	–	1423.8 ± 2.4
303.14 K, 45590 kPa	–	1491.4 ± 2.4
303.14 K, 60790 kPa	–	1553.1 ± 2.5
303.14 K, 75990 kPa	–	1610.9 ± 2.5
303.14 K, 91180 kPa	–	1664.1 ± 2.5
303.14 K, 101320 kPa	–	1697.4 ± 2.6
303.15 K, 101 kPa	741.636 ± 0.64	1259.3 ± 1.6
303.15 K, 15200 kPa	–	1348.5 ± 2.4
308.12 K, 101 kPa	–	1240.2 ± 1.6
308.13 K, 75990 kPa	–	1596.8 ± 2.5
308.13 K, 91180 kPa	–	1650.9 ± 2.6
308.14 K, 15200 kPa	–	1331 ± 2.4
308.14 K, 30390 kPa	–	1407.6 ± 2.4
308.14 K, 45590 kPa	–	1476.3 ± 2.4
308.14 K, 60790 kPa	–	1538.6 ± 2.5
308.15 K, 101 kPa	738.031 ± 0.64	–
313.1 K, 101 kPa	–	1221 ± 1.6
313.15 K, 101 kPa	734.369 ± 0.65	–
313.21 K, 15200 kPa	–	1313.4 ± 2.4
313.21 K, 30390 kPa	–	1391.1 ± 2.4
313.21 K, 45590 kPa	–	1460.8 ± 2.4
313.21 K, 60790 kPa	–	1524.1 ± 2.5
313.21 K, 75990 kPa	–	1582.5 ± 2.5
313.21 K, 91180 kPa	–	1637.3 ± 2.5
313.21 K, 101320 kPa	–	1671.3 ± 2.6
318.15 K, 101 kPa	730.715 ± 0.65	–
318.29 K, 15200 kPa	–	1296.2 ± 2.4
318.29 K, 30390 kPa	–	1375 ± 2.4
318.29 K, 45590 kPa	–	1445.5 ± 2.4
318.29 K, 60790 kPa	–	1509.7 ± 2.5
318.29 K, 91180 kPa	–	1624.1 ± 2.6
318.29 K, 101320 kPa	–	1658.5 ± 2.6
318.3 K, 75990 kPa	–	1568.8 ± 2.5
318.39 K, 101 kPa	–	1200.9 ± 1.6

Settings	refractive index
[2]	1.4197 ± 0.0008

CCCCCCC [heptane] + CCCCCCCCCCCC
[3]
Settings	mass density [kg/m3]	speed of sound [m/s]
292.83 K, 101 kPa	–	1153.2 ± 1.6
292.88 K, 45590 kPa	–	1417.7 ± 2.4
292.88 K, 60790 kPa	–	1485.5 ± 2.5
292.88 K, 75990 kPa	–	1547.2 ± 2.5
292.88 K, 91180 kPa	–	1605 ± 2.6
292.88 K, 101320 kPa	–	1641.2 ± 2.6
292.89 K, 15200 kPa	–	1257 ± 2.4
292.89 K, 30390 kPa	–	1342.4 ± 2.4
293.15 K, 101 kPa	683.803 ± 0.71	–
298.12 K, 101 kPa	–	1130.1 ± 1.6
298.15 K, 101 kPa	679.548 ± 0.72	–
298.15 K, 15200 kPa	–	1236.7 ± 2.4
298.15 K, 30390 kPa	–	1323.7 ± 2.4
298.15 K, 45590 kPa	–	1400.1 ± 2.4
298.15 K, 60790 kPa	–	1469.1 ± 2.5
298.15 K, 91180 kPa	–	1589.7 ± 2.6
298.15 K, 101320 kPa	–	1626.4 ± 2.6
298.16 K, 75990 kPa	–	1531.6 ± 2.5
303.1 K, 101 kPa	–	1108.5 ± 1.6
303.13 K, 60790 kPa	–	1453.5 ± 2.5
303.13 K, 91180 kPa	–	1575.6 ± 2.6
303.13 K, 101320 kPa	–	1612.6 ± 2.6
303.14 K, 30390 kPa	–	1306.4 ± 2.4
303.14 K, 45590 kPa	–	1383.7 ± 2.4
303.14 K, 75990 kPa	–	1517 ± 2.5
303.15 K, 101 kPa	675.293 ± 0.72	–
303.15 K, 15200 kPa	–	1217.8 ± 2.4
308.08 K, 101 kPa	–	1087 ± 1.6
308.12 K, 45590 kPa	–	1367.9 ± 2.4
308.12 K, 75990 kPa	–	1502.7 ± 2.5
308.12 K, 91180 kPa	–	1561.5 ± 2.6
308.12 K, 101320 kPa	–	1599.1 ± 2.6
308.13 K, 15200 kPa	–	1199.2 ± 2.4
308.13 K, 30390 kPa	–	1289.3 ± 2.4
308.13 K, 60790 kPa	–	1438.4 ± 2.5
308.15 K, 101 kPa	671.015 ± 0.73	–
313.06 K, 101 kPa	–	1065.6 ± 1.6
313.1 K, 30390 kPa	–	1272.5 ± 2.4
313.1 K, 45590 kPa	–	1352.5 ± 2.4
313.1 K, 60790 kPa	–	1423.8 ± 2.5
313.1 K, 75990 kPa	–	1488.7 ± 2.5
313.1 K, 91180 kPa	–	1548.1 ± 2.6
313.1 K, 101320 kPa	–	1585.7 ± 2.6
313.11 K, 15200 kPa	–	1180.7 ± 2.4
313.15 K, 101 kPa	666.684 ± 0.73	–
318.15 K, 101 kPa	662.324 ± 0.74	–
318.28 K, 15200 kPa	–	1161.8 ± 2.4
318.28 K, 30390 kPa	–	1255.3 ± 2.4
318.28 K, 45590 kPa	–	1336.5 ± 2.5
318.28 K, 60790 kPa	–	1408.6 ± 2.5
318.28 K, 75990 kPa	–	1474.4 ± 2.5
318.28 K, 91180 kPa	–	1534.3 ± 2.6
318.28 K, 101320 kPa	–	1572.3 ± 2.6
318.35 K, 101 kPa	–	1043 ± 1.6

CCCCCCC [heptane]
[1]
Settings	mass density [kg/m3]	speed of sound [m/s]
292.83 K, 101 kPa	–	1153.2 ± 1.6
292.88 K, 45590 kPa	–	1417.7 ± 2.4
292.88 K, 60790 kPa	–	1485.5 ± 2.5
292.88 K, 75990 kPa	–	1547.2 ± 2.5
292.88 K, 91180 kPa	–	1605 ± 2.6
292.88 K, 101320 kPa	–	1641.2 ± 2.6
292.89 K, 15200 kPa	–	1257 ± 2.4
292.89 K, 30390 kPa	–	1342.4 ± 2.4
293.15 K, 101 kPa	683.803 ± 0.71	–
298.12 K, 101 kPa	–	1130.1 ± 1.6
298.15 K, 101 kPa	679.548 ± 0.72	–
298.15 K, 15200 kPa	–	1236.7 ± 2.4
298.15 K, 30390 kPa	–	1323.7 ± 2.4
298.15 K, 45590 kPa	–	1400.1 ± 2.4
298.15 K, 60790 kPa	–	1469.1 ± 2.5
298.15 K, 91180 kPa	–	1589.7 ± 2.6
298.15 K, 101320 kPa	–	1626.4 ± 2.6
298.16 K, 75990 kPa	–	1531.6 ± 2.5
303.1 K, 101 kPa	–	1108.5 ± 1.6
303.13 K, 60790 kPa	–	1453.5 ± 2.5
303.13 K, 91180 kPa	–	1575.6 ± 2.6
303.13 K, 101320 kPa	–	1612.6 ± 2.6
303.14 K, 30390 kPa	–	1306.4 ± 2.4
303.14 K, 45590 kPa	–	1383.7 ± 2.4
303.14 K, 75990 kPa	–	1517 ± 2.5
303.15 K, 101 kPa	675.293 ± 0.72	–
303.15 K, 15200 kPa	–	1217.8 ± 2.4
308.08 K, 101 kPa	–	1087 ± 1.6
308.12 K, 45590 kPa	–	1367.9 ± 2.4
308.12 K, 75990 kPa	–	1502.7 ± 2.5
308.12 K, 91180 kPa	–	1561.5 ± 2.6
308.12 K, 101320 kPa	–	1599.1 ± 2.6
308.13 K, 15200 kPa	–	1199.2 ± 2.4
308.13 K, 30390 kPa	–	1289.3 ± 2.4
308.13 K, 60790 kPa	–	1438.4 ± 2.5
308.15 K, 101 kPa	671.015 ± 0.73	–
313.06 K, 101 kPa	–	1065.6 ± 1.6
313.1 K, 30390 kPa	–	1272.5 ± 2.4
313.1 K, 45590 kPa	–	1352.5 ± 2.4
313.1 K, 60790 kPa	–	1423.8 ± 2.5
313.1 K, 75990 kPa	–	1488.7 ± 2.5
313.1 K, 91180 kPa	–	1548.1 ± 2.6
313.1 K, 101320 kPa	–	1585.7 ± 2.6
313.11 K, 15200 kPa	–	1180.7 ± 2.4
313.15 K, 101 kPa	666.684 ± 0.73	–
318.15 K, 101 kPa	662.324 ± 0.74	–
318.28 K, 15200 kPa	–	1161.8 ± 2.4
318.28 K, 30390 kPa	–	1255.3 ± 2.4
318.28 K, 45590 kPa	–	1336.5 ± 2.5
318.28 K, 60790 kPa	–	1408.6 ± 2.5
318.28 K, 75990 kPa	–	1474.4 ± 2.5
318.28 K, 91180 kPa	–	1534.3 ± 2.6
318.28 K, 101320 kPa	–	1572.3 ± 2.6
318.35 K, 101 kPa	–	1043 ± 1.6

Settings	refractive index
[2]	1.3853 ± 0.0008
